The text below walks through data of patent US9028879B2, “Chromium complexes as enhancers of brain glucose transporters” (JDS Therapeutics, LLC, priority 2009, dated 2015).

Data set [1] relates to subject having Parkinson's disease. Description: Example 6: treatment of subject with Parkinson's disease. It counts as in vivo. The following applies: 50 μg to 5000 μg, orally, over time. The protocol: A subject is identified as having Parkinson's disease by conventional methods.
The subject is administered between 50 μg and 5000 μg chromium polyhistidinate. The chromium is administered orally.

The subject of data set [2] is subject having GLUT1 deficiency syndrome. As to the kind of experiment: Example 3: treatment of subject with GLUT1 deficiency syndrome. Conditions: 50 μg to 5000 μg/day, orally, after a period of time. The data set is classed as in vivo. From the text:
A subject is identified as having GLUT1 deficiency syndrome. The subject presents with one or more symptoms associated with GLUT1 deficiency syndrome such as the presence of a SLC2A1 mutation, neurological problems associated with GLUT1 deficiency such as stiffness caused by abnormal tensing of the muscles (spasticity), difficulty in coordinating movements (ataxia), and speech difficulties (dysarthria). The subject can experience episodes of confusion, lack of energy (lethargy), headaches, muscle twitches (myoclonus), or involuntary irregular eye movements, particularly before meals.
The subject is administered between 50 μg and 5000 μg chromium histidinate, chromium picolinate, or chromium histidinate/chromium picolinate combination complex/day. The chromium histidinate is administered orally.

Data set [3] concerns subject having Alzheimer's disease. As to the kind of experiment: Example 5: treatment of subject with Alzheimer's disease with standard therapeutics. It counts as in vivo. Conditions: 50 μg to 5000 μg chromium orally with standard therapeutics, over a period of five days.
The conditions of data set [4]: reported (Kaats 1998; Cefalu 1999); cited from earlier work.
Data set [5] is described as follows: Serum and brain chromium levels in high fat diet rats. An excerpt:
(§1) Briefly, insulin resistance and hyperglycemia were induced in male Wistar rats by feeding a high fat diet (HFD, 40% of calories as fat). A healthy control group received a standard diet (12% of calories as fat). Rats were fed their diets throughout the 12 week study.
(§2) Rats (10/group) were divided into groups: healthy control (Control), HFD, and HFD+CrHis. Chromium (Cr) treated rats were fed CrHis (110 mcg/kg body wt/d). Cr treatment started at the beginning of the study and was continued for 12 weeks. […] Body weight, serum chromium levels, and blood glucose levels were also measured.

Data set [6] in a line: Body weight and blood glucose in high fat diet rats. The data set is classed as in vivo, male Wistar rats.
Description: as §1, §2

Where [7] appears, read: HFD rats, CrHis 110 mcg/kg body wt/d, 12 weeks, mean ± s.e.m.
Where [8] appears, read: compared to the high fat diet alone.

Marks after values point to notes of the source that are not given here.

As for chromium polyhistidinate, the “subject's condition, as assessed by one or more symptoms of the disease” value in data set [1] is “does not worsen or improves”.
As to chromium picolinate, the “symptoms of GLUT1 deficiency” value in data set [2] is recorded as “reduction in one or more of the symptoms”. Further, the “subject's condition, as assessed by one or more symptoms of the disease” value in data set [3] is given as “does not worsen or improves”. Besides, the “weight loss and changes in body composition” value in data set [4] was “modest weight loss”.
In the case of chromium histidinate [CrHis], in data set [2], the “symptoms of GLUT1 deficiency” value was “reduction in one or more of the symptoms”. Further, the “Brain Chromium” value in data set [5] (HFD rats, CrHis 110 mcg/kg body wt/d, 12 weeks, brain tissue homogenates, mean ± s.e.m.) was 17.7 ± 0.2^c ng/g. Moreover, in data set [5] (setting [7]), the “Serum Chromium” value is reported as 22.0 ± 0.6^c ng/g. In data set [5] (setting [8]), the “brain chromium levels, change” value is reported as “significantly increased” and the “serum chromium levels, change” value is listed as “significantly increased”. For the same substance, in data set [6] (setting [7]), the “Blood Glucose” value was 116.4 ± 2.1^c mg/dL and the “Body Weight” value was 315.1 ± 1.9^c g. Further, in data set [6] (setting [8]), the “blood glucose levels, change” value was “decreased” and the “body weight, change” value was “decreased”.
